Consider 3 molecules from US6902726B1, “Reduction of odor gases from waste using plant-derived oils” (The United States of America as represented by the …, priority 2001, dated 2005).

Values after ≈ are worked out from the molar mass of the structure shown. Where two headings read alike, the source gives them in different places.

Data set [1] in a line: recovery of added oil from liquid and solid fractions of swine waste, sealed flasks. In kind it is physicochemical. The method, then: Swine waste was processed similarly to the method described in Example 1. Fecal waste was randomly collected within 15 min of being excreted from animals fed a finishing diet of 85% corn and 11% soybean meal. Swine urine was collected from catheterized animals. Feces, urine, and distilled water in the ratio 50:35:15 were blended (Waring Inc., New Hartford, Conn.) for 1 min. Four replicate samples were obtained from this slurry and analyzed for various parameters and were considered as time 0. […] Gas volume and composition were analyzed in these flasks (anoxic slurry).
A 15-ml waste sample was collected from each flask. The sample was mixed with 15 ml of 0.5 M H2SO4, centrifuged at 2000×g for 20 min at 4° C., and stored at −20° C. until analyzed [Varel, V. H. et al. (1999), J Anim Sci 77:1162-1168]. L-Lactate concentrations were determined with a membrane-immobilized system involving lactate oxidase (Model 27, Yellow Springs Instrument Co., Yellow Springs, Ohio, USA). Short-chain volatile fatty acids (VFAs; acetate, propionate, butyrate, valerate, isobutyrate, isovalerate) and aromatic compounds (cresol, indole, skatole, 4-ethylphenol, phenol) were determined in an aliquot from the original acidified sample. […] Data were analyzed as a split-plot in time with the GLM procedure of (SAS).

The subject of data set [2] is stored swine waste. Briefly: fermentation of stored swine waste in anoxic flasks (gas, VFA, L-lactate, pH). In kind it is cell-based. The following applies: for methane detected: 13.3 mM, after 20 days; for gas production / production of propionate / production of valerate, isovalerate, isobutyrate and cresol: carvacrol or thymol at 13.3 or 16.75 mM, or combination to equal 16.75 mM; for lactate accumulation: oil added to swine waste; for concentration required to suppress most fermentation activity: swine waste slurry, same ratio (50:35:15). As to the method:
Swine waste was processed similarly to the method described in Example 1. Fecal waste was randomly collected within 15 min of being excreted from animals fed a finishing diet of 85% corn and 11% soybean meal. Swine urine was collected from catheterized animals. Feces, urine, and distilled water in the ratio 50:35:15 were blended (Waring Inc., New Hartford, Conn.) for 1 min. Four replicate samples were obtained from this slurry and analyzed for various parameters and were considered as time 0. The waste slurry was divided into 500 ml aliquots and antimicrobial plant oils were added directly at the desired concentration, with one exception, in which carvacrol was dissolved 1:1 v:v in 95% ethanol, or 2 ml carvacrol/ethanol addition in these 500 ml slurries. The slurry was blended 1 min to provide a homogenous mixing of the antimicrobial oils and poured into 1-liter Erlenmeyer flasks, which were gassed with nitrogen (also after each sampling), sealed with a rubber stopper and left stationary at ambient temperature (25° C.). Treatments were in duplicate, and the contents of the flasks were gently swirled before being sampled at the days indicated in FIGS. 3-5. Gas volume and composition were analyzed in these flasks (anoxic slurry).
Head space gas was measured by displacement of a water-lubricated glass piston in a 50 ml syringe [Miller, T. L. et al. (1974), Appl Environ 27:985-987]. A 20-gauge needle with a Leurlok was inserted through the stopper, and a three-way valve was attached to the needle to allow gas volume to be periodically determined. Methane and hydrogen were analyzed as previously described [Varel, V. H. et al. (2000), Curr Microbiol 40:392-397].
(§1) A 15-ml waste sample was collected from each flask. The sample was mixed with 15 ml of 0.5 M H2SO4, centrifuged at 2000×g for 20 min at 4° C., and stored at −20° C. until analyzed [Varel, V. H. et al. (1999), J Anim Sci 77:1162-1168]. L-Lactate concentrations were determined with a membrane-immobilized system involving lactate oxidase (Model 27, Yellow Springs Instrument Co., Yellow Springs, Ohio, USA). Short-chain volatile fatty acids (VFAs; acetate, propionate, butyrate, valerate, isobutyrate, isovalerate) and aromatic compounds (cresol, indole, skatole, 4-ethylphenol, phenol) were determined in an aliquot from the original acidified sample. After thawing, the sample was centrifuged at 5° C., 10,000×g for 5 min. A 0.5 ml aliquot of the supernatant was combined with an internal standard, ethyl butyrate (0.25 mM final concentration), the sample was acidified with 0.4 ml of 3 M HC1, 0.8 ml ethyl ether was added, the sample was shaken vigorously for 1 min, and centrifuged at 5° C., 16,000×g for 1 min, and the ether phase was analyzed. To determine carvacrol and thymol concentrations, an aliquot of the original acidified sample which was not centrifuged, was treated as indicated above and extracted with ether twice. […] Aromatic, VFAs, thymol and carvacrol were analyzed with a Hewlett Packard 6890 gas chromatograph equipped with a flame ionization detector and a Hewlett Packard 5973 mass selective detector. Compounds were separated on a 30 m×0.32 mm diameter (0.5 μm film thickness) Innowax PEG column using the following program parameters: flow rate was 1.9 ml min^−1, initial temperature was 140° C., initial time was 3 min with a temperature ramp of 7.5° C. min^−1, with a final temperature of 230° C. for 4 min. Injector and detector temperatures were 250° C. Data were analyzed as a split-plot in time with the GLM procedure of (SAS).

In data set [3] the test system is stored cattle waste. Briefly: fermentation of stored cattle waste in open wide-mouthed jars (VFA, butyrate). The format is cell-based. The following applies: for production of short-chain volatile fatty acids: 13.3 mM individually, 56 days, versus combination of the two oils (6.7 mM each); for concentration that suppressed essentially all fermentation activity: cattle waste slurry of feces, urine and water (50:35:15). The method, then: Waste was collected and processed as in Example 1. The waste slurry was divided into 1-liter aliquots and poured into wide-mouth (10 cm) jars (17 cm tall, 13.5 cm diameter, 1.6-liters). The plant oils (carvacrol, thymol and α-pinene) were added to the slurry without stirring or mixing. Plastic lids provided with the jars were used to cover approximately 90% of the jar opening to prevent moisture loss over the 56-day experimental period. A wide mouth pipette was inserted into the slurry from top to bottom at which time slurry contents were simultaneously withdrawn. Total VFA production and butyrate production were measured as described in Example 1.

Data set [4] deals with stored cattle waste. Kind of data set: VFA and L-lactate production from cattle waste in anoxic flasks, eugenol versus thymol. The format is cell-based. The following applies: for L-lactate production: cattle waste, eugenol at all concentrations evaluated. As to the method: Waste was collected and processed as in Example 1. The waste slurry was divided into 500-ml aliquots and eugenol or thymol were added directly at the desired concentration. The slurry was blended 1 min to provide a homogeneous mixing of the antimicrobial oils and poured into a 1-liter Erlenmeyer flask, which was sealed with a rubber stopper and left stationary at ambient temperature (25° C.). Treatments were in triplicate, and the contents of the flask were gently swirled before being sampled at the times indicated. Short-chain volatile fatty acids and L-lactate in the flasks were determined as described in Example 1. […] This is a desirable effect in some cases because it rapidly lowers the pH which contributes to inhibiting the overall fermentation of the wastes, and more ammonia nitrogen will be retained in the wastes.

The next data set deals with E. coli O157:H7. The following applies: cited from earlier work; for minimum inhibitory concentration: pure culture system, Helander et al.; for concentration that will kill E. coli O157:H7: Kim et al.
The next data set has as its system Salmonella typhimurium. The following applies: pure culture system; Helander et al.; cited from earlier work.
The test system of data set [5] is stored swine waste. Briefly: VFA production from swine waste in open jars. In kind it is cell-based. The method, then:
as §1, with “analyzed.” for “analyzed. To determine carvacrol and thymol concentrations, an aliquot of the original acidified sample which was not centrifuged, was treated as indicated above and extracted with ether twice.”, “Compounds were separated on a 30 m×0.32 mm diameter (0.5 μm film thickness) Innowax PEG column using the following program parameters: flow rate was 1.9 ml min^−1, initial temperature was 140° C., initial time was 3 min with a temperature ramp of 7.5° C. min^−1, with a final temperature of 230° C. for 4 min. Injector and detector temperatures were 250° C.” left out, “(SAS). […]” for “(SAS).”

Data set [6] deals with total culturable anaerobic bacteria. Kind of data set: total culturable anaerobic bacteria in swine waste, open jars. Particulars: 13.3 mM and 20 mM; within 2 days versus controls (P<0.05); sustained for 28 days. The format is cell-based. The method, then:
(§2) Swine waste was collected and processed into a slurry as in Example 3. As in Example 2, the slurry was added to wide-mouth (10 cm) jars (17 cm tall, 13.5 cm in diameter, 1.6-liter volume) with the test antimicrobial additives, and plastic lids were placed to cover approximately 90% of the jar opening to prevent moisture loss over the experimental period. The sampling procedure was similar to that described above in Example 3, except no stirring or mixing occurred before the contents were sampled, and treatments were in triplicate.
(§3) Fecal coliforms were enumerated with 3 M Petrifilm Escherichia coli coliform count plates (3 M Microbiology Products, St. Paul, Minn.). Both of the carvacrol treatments reduced (P<0.05) the number of viable anaerobic bacteria in the waste within 2 days when compared to the controls (Table 2). This effect was sustained for 28 days. The initial decrease in the concentrations of anaerobic bacteria from day 0 to 2 in the control is presumably because VFAs increase in this batch system and become lethal to a select population of organisms.

Another data set concerns fecal coliforms. Kind of data set: fecal coliforms in swine waste, open jars. The format is cell-based. As to the method: as §2, §3

In the case of `Cc1ccc(C(C)C)c(O)c1` [thymol], the “thymol recovered from the liquid or supernatant fraction” value in data set [1] (% of added, swine waste) is “less than 25%”. Besides, in the data set on stored swine waste [2], the methane detected result was “Trace amounts”; the gas production result is “essentially stopped most gas production”; the production of propionate entry is recorded as “inhibited”; the “production of valerate, isovalerate, isobutyrate and cresol” value is given as “prevented any production”. Also, in the data set with stored swine waste [2], the lactate accumulation result was “accumulated” and the “concentration required to suppress most fermentation activity” value stood at 16.75 mM. Further, in the data set with stored cattle waste [3], the “production of short-chain volatile fatty acids” value is “equally or slightly better” and the “concentration that suppressed essentially all fermentation activity” value is 13.3 mM. Besides, the L-lactate production result with stored cattle waste [4] is “inhibits production of L-lactate”. Also, the minimum inhibitory concentration in the data set on E. coli O157:H7 is listed as 3 mM (≈ 451 µg/mL). For the same molecule, the minimum inhibitory concentration in the data set with Salmonella typhimurium is on record as 1 mM (≈ 150 µg/mL).
Regarding `Cc1ccc(C(C)C)cc1O` [carvacrol], the “effect of dissolving in ethanol on ability to inhibit VFA production” value in the data set with stored swine waste [5] (dissolved in ethanol before addition (P>0.05)) is “no effect”. Also, the “production of VFAs” value in the data set with stored swine waste [5] (three concentrations (P<0.01), open jars) is reported as “inhibited the production of VFAs”. The “number of viable anaerobic bacteria” value in [6] is reported as “reduced”. Moreover, in [1] (sealed flasks), the “recoveries compared with thymol” value is “similar”. Also, in the data set on stored swine waste [2], the methane detected entry is “Trace amounts”; the gas production result is reported as “essentially stopped most gas production”; the production of propionate result is “inhibited”; the “production of valerate, isovalerate, isobutyrate and cresol” value is listed as “prevented any production”. Also, in the data set with stored swine waste [2], the lactate accumulation result was “accumulated” and the “concentration required to suppress most fermentation activity” value came to 16.75 mM. Moreover, the fecal coliforms result in the data set with fecal coliforms (13.3 mM, at 14 days) was “none were detected”. In addition, in the data set with fecal coliforms (13.3 mM, within 2 days (P<0.01)), the fecal coliforms entry is listed as “reduced”. Moreover, the fecal coliforms entry with fecal coliforms (20 mM, after 2 days) is “No fecal coliforms were detected”. In addition, in the data set with stored cattle waste [3], the “production of short-chain volatile fatty acids” value is “equally or slightly better” and the “concentration that suppressed essentially all fermentation activity” value is given as 13.3 mM. Further, in the data set on E. coli O157:H7, the “concentration that will kill E. coli O157:H7” value was 500 µg/mL and the minimum inhibitory concentration was 3 mM (≈ 451 µg/mL). Moreover, in the data set on E. coli O157:H7 (value in brackets), the “concentration that will kill E. coli O157:H7” value is recorded as 3.3 mM. Besides, the minimum inhibitory concentration with Salmonella typhimurium was 1 mM (≈ 150 µg/mL).
With `C=CCc1ccc(O)c(OC)c1` [eugenol], the “control of total VFA production compared to 2000 ppm (13.3 mM) thymol” value in the data set with stored cattle waste [4] (2000 or 2500 ppm (13.3 or 16 mM), 42-day period) is “equally or more effective”. Moreover, the L-lactate production entry in the data set with stored cattle waste [4] is recorded as “stimulates L-lactate production”. Further, the “inhibition of VFA production, dependence” value in the data set with stored cattle waste [4] (various concentrations) was “concentration dependent”.
